Measured values taken from ChEMBL document CHEMBL5518248, “Design, Synthesis, and Biological Evaluation of Novel Arylomycins against Multidrug-Resistant Gram-Negative Bacteria” (J Med Chem, 2024).
Activity calls are given as the source filed them. The rule behind the calls is not given here.

Key:
[1] = AUC (0 to t) in Sprague-Dawley rat at 10 mg/kg, po measured upto 24 hrs LC-MS/MS analysis; assay type: ADME, organism-based; settings: in vivo, po, 10 mg/kg, 24 h
Escherichia coli [2] = assay: Antibacterial activity against Escherichia coli ATCC 35218 assessed as inhibition of bacterial growth measured after 18 to 20 hrs by broth microdilution method; assay type: functional; settings: time 18-20 hrs
HepG2 [3] = assay: Cytotoxicity against human HepG2 cells assessed as inhibition of cell growth at 100 uM incubated for 24 hrs by CCK8 method relative to control; assay type: functional
Escherichia coli [4] = assay: Antibacterial activity against Escherichia coli 14-4 assessed as inhibition of bacterial growth measured after 18 to 20 hrs by broth microdilution method; assay type: functional; settings: time 18-20 hrs
[5] = Cmax in Sprague-Dawley rat at 10 mg/kg, po measured upto 24 hrs LC-MS/MS analysis; assay type: ADME, organism-based; settings: in vivo
[6] = AUC (0 to t) in Sprague-Dawley rat at 10 mg/kg, iv measured upto 24 hrs LC-MS/MS analysis; assay type: ADME, organism-based; settings: in vivo, iv, 10 mg/kg, 24 h
[7] = MRT in Sprague-Dawley rat at 10 mg/kg, iv measured upto 24 hrs LC-MS/MS analysis; assay type: ADME, organism-based; settings: in vivo
Pseudomonas aeruginosa [8] = assay: Antibacterial activity against Pseudomonas aeruginosa T-2022 assessed as inhibition of bacterial growth measured after 18 to 20 hrs by broth microdilution method; assay type: functional; settings: time 18-20 hrs
Klebsiella pneumoniae [9] = assay: Antibacterial activity against Klebsiella pneumoniae 15-4 assessed as inhibition of bacterial growth measured after 18 to 20 hrs by broth microdilution method; assay type: functional; settings: time 18-20 hrs
[10] = Volume of distribution at steady state in Sprague-Dawley rat at 10 mg/kg, iv measured upto 24 hrs LC-MS/MS analysis; assay type: ADME, organism-based; settings: in vivo, read-out: Vdss
[11] = Half life in Sprague-Dawley rat at 10 mg/kg, iv measured upto 24 hrs LC-MS/MS analysis; assay type: ADME, organism-based; settings: in vivo
[12] = Oral bioavailability in Sprague-Dawley rat at 10 mg/kg measured upto 24 hrs LC-MS/MS analysis; assay type: ADME, organism-based; settings: in vivo, po, 10 mg/kg, 24 h
Klebsiella pneumoniae [13] = assay: Antibacterial activity against Klebsiella pneumoniae 15-1 assessed as inhibition of bacterial growth measured after 18 to 20 hrs by broth microdilution method; assay type: functional; settings: time 18-20 hrs
Pseudomonas aeruginosa [14] = assay: Antibacterial activity against Pseudomonas aeruginosa 17-1 assessed as inhibition of bacterial growth measured after 18 to 20 hrs by broth microdilution method; assay type: functional; settings: time 18-20 hrs
Jurkat [15] = assay: Cytotoxicity against human Jurkat cells assessed as inhibition of cell growth incubated for 24 hrs by CCK8 method; assay type: functional, cell-based
Acinetobacter baumannii [16] = assay: Antibacterial activity against Acinetobacter baumannii; assay type: functional
Klebsiella pneumoniae [17] = assay: Antibacterial activity against Klebsiella pneumoniae 15-5 assessed as inhibition of bacterial growth measured after 18 to 20 hrs by broth microdilution method; assay type: functional; settings: time 18-20 hrs
Jurkat [18] = assay: Cytotoxicity against human Jurkat cells assessed as inhibition of cell growth at 100 uM incubated for 24 hrs by CCK8 method relative to control; assay type: functional
[19] = Cytotoxicity against HEK293T cells assessed as inhibition of cell growth at 100 uM incubated for 24 hrs by CCK8 method relative to control; assay type: toxicity, cell-based, HEK-293T; settings: human
Acinetobacter baumannii [20] = assay: Antibacterial activity against Acinetobacter baumannii 17-2 assessed as inhibition of bacterial growth measured after 18 to 20 hrs by broth microdilution method; assay type: functional; settings: time 18-20 hrs
HepG2 [21] = assay: Cytotoxicity against human HepG2 cells assessed as inhibition of cell growth incubated for 24 hrs by CCK8 method; assay type: functional, cell-based; settings: HepG2, 24 h
[22] = Tmax in Sprague-Dawley rat at 10 mg/kg, po measured upto 24 hrs LC-MS/MS analysis; assay type: ADME, organism-based; settings: in vivo
[23] = Cytotoxicity against HEK293T cells assessed as inhibition of cell growth incubated for 24 hrs by CCK8 method; assay type: toxicity, cell-based, HEK-293T; settings: human
[24] = Half life in Sprague-Dawley rat at 10 mg/kg, po measured upto 24 hrs LC-MS/MS analysis; assay type: ADME, organism-based; settings: in vivo
Escherichia coli [25] = assay: Antibacterial activity against Escherichia coli 14-2 assessed as inhibition of bacterial growth measured after 18 to 20 hrs by broth microdilution method; assay type: functional; settings: time 18-20 hrs
Acinetobacter baumannii [26] = assay: Antibacterial activity against Acinetobacter baumannii 17-8 assessed as inhibition of bacterial growth measured after 18 to 20 hrs by broth microdilution method; assay type: functional; settings: time 18-20 hrs
[27] = MRT in Sprague-Dawley rat at 10 mg/kg, po measured upto 24 hrs LC-MS/MS analysis; assay type: ADME, organism-based; settings: in vivo
Pseudomonas aeruginosa [28] = assay: Antibacterial activity against Pseudomonas aeruginosa 19-5 assessed as inhibition of bacterial growth measured after 18 to 20 hrs by broth microdilution method; assay type: functional; settings: time 18-20 hrs
Pseudomonas aeruginosa [29] = assay: Antibacterial efficacy against multi drug resistant Pseudomonas aeruginosa T-2022-D2-048 infected in cyclophosphamide-induced neutropenic thigh infection ICR mouse model assessed as decrease in bacterial burden administered as iv dose measured after 24 hrs; assay type: functional, organism-based; settings: dose 3-12 mg/kg
Pseudomonas aeruginosa [30] = assay: Antibacterial activity against Pseudomonas aeruginosa; assay type: functional
[31] = Clearance in Sprague-Dawley rat at 10 mg/kg, iv measured upto 24 hrs LC-MS/MS analysis; assay type: ADME, organism-based; settings: in vivo

For `Cc1nc(-c2ccc(C(C)(C)C)cc2)ncc1C(=O)N[C@@H](CCN)C(=O)N(C)[C@@H]1C(=O)N[C@@H](C)C(=O)N[C@H](C(=O)NCC#N)Cc2ccc(OCCN)c(c2)-c2cc1ccc2OCCN.Cl.Cl.Cl.Cl`, the AUCt [1] was 9.01 ng·h/mL, the MIC (Escherichia coli [2]) was ≤ 0.03 µg/mL and the inhibition at 100 µM (HepG2 [3]) was -3.46%. The MIC (Escherichia coli [4]) was ≤ 0.03 µg/mL, the Cmax [5] was 3.37 ng/mL and the AUCt [6] was 61496 ng·h/mL. The MRT [7] was 2.62 h, the MIC (Pseudomonas aeruginosa [8]) was 8 µg/mL and the MIC (Klebsiella pneumoniae [9]) was 0.125 µg/mL. It also gave a Vd [10] of 0.423 L/kg, a half-life [11] of 1.51 h and an F [12] of 0.1%. For the same molecule, the MIC (Klebsiella pneumoniae [13]) was ≤ 0.03 µg/mL, the MIC (Pseudomonas aeruginosa [14]) was 32 µg/mL and the IC50 (Jurkat [15]) was > 100 µM. For the same molecule, the MIC90 (Acinetobacter baumannii [16]) was 4 µg/mL, the MIC (Klebsiella pneumoniae [17]) was 0.06 µg/mL and the inhibition at 100 µM (Jurkat [18]) was 20.8%. For the same molecule, the inhibition at 24 h, 100 µM [19] was 37.9%, the MIC (Acinetobacter baumannii [20]) was 2 µg/mL and the IC50 (HepG2 [21]) was > 100 µM. For the same molecule, the Tmax [22] was 1.17 h, the IC50 at 24 h [23] was > 100 µM and the half-life [24] was 1.56 h. For the same molecule, the MIC (Escherichia coli [25]) was ≤ 0.03 µg/mL, the MIC (Acinetobacter baumannii [26]) was 1 µg/mL and the MRT [27] was 2.69 h. For the same molecule, the MIC (Pseudomonas aeruginosa [28]) was 16 µg/mL, the Activity (Pseudomonas aeruginosa [29]) was “inactive” and the MIC90 (Pseudomonas aeruginosa [30]) was 16 µg/mL. It also gave a clearance [31] of 2.71 mL/min/kg.
